The results in this text go back to US20150328329A1, “LIGANDS THAT TARGET HCV-E2 BINDING SITES ON CD81 AND THERAPEUTIC METHODS USING THEM” (American University of Cairo, priority 2012, published 2015).

In one test the target is T1, recombinant CD81-LEL (Homo sapiens, UniProt P60033).
T1 construct: the large extracellular loop of CD81 (CD81-LEL); GST; His; Shoshana Levy Lab, Stanford (gift)
T1 sequence (P60033 113-201 limits assumed): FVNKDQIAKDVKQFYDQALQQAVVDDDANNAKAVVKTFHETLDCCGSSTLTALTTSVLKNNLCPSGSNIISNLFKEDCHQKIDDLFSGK
The test can be described thus: SPR (Biacore T100) binding of additional ligands to immobilized CD81-LEL (Example 6). The note with it: Table E, ligand 200 uM in PBS-1% DMSO. On the procedure: SPR analysis was performed using a Biacore T100 workstation (GE Healthcare, NJ, USA). A recombinant form of the CD81-LEL protein with a GST-tag (Shoshana Levy Lab-Stanford) was used to determine the binding affinities of the ligands in the above list. 10 uM CD81-LEL-His diluted into 10 mM sodium acetate buffer pH 4.5 was immobilized for […] at a flow speed of 5 ul/min onto a CM5 sensor chip using amine coupling (EDC-NHS). Approximately 20,000 RU of protein were immobilized on the chip. The ligands were prepared as 200 uM solutions in PBS-1% DMSO (the running buffer) and they were introduced to the protein using a pre-programmed 3 min association and 1 min dissociation interval. Ligands that bind have a positive RU (response units) number and the strength of binding to the CD81 protein is related to the magnitude of the RU number; the larger the number the more binding.

Test [1] addresses T2, native CD81 on Raji cells (Homo sapiens, UniProt P60033).
T2 construct: endogenous in cells; host or cells: Raji (human B cell line)
T2 sequence (P60033 1-236): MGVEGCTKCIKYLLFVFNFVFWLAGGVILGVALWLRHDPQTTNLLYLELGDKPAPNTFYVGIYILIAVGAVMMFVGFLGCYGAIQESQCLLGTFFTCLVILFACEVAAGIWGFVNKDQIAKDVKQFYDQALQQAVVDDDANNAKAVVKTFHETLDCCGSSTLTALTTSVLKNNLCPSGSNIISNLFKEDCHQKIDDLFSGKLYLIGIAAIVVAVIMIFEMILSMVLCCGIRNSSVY
As to the kind of experiment: Competition assay: inhibition of FITC-labeled JS-81 anti-CD81 antibody binding to native CD81 on live Raji cells (flow cytometry). The format is cell-based. The source says:
A subset of these ligands and some of those listed in the patent have been tested to identify those ligands that bind to the correct region of the CD81 protein and for binding to native CD81 on living cells (a Raji cell line). This assay tests three concentrations of the ligand to determine if the ligand is capable of inhibiting the binding of an antibody called JS-81. This antibody is known to bind to the region of the CD81 protein we have targeted. If the ligand decreases JS-81 binding as you increase the concentration of the ligand, it is 1) binding to native CD81 on the Raji cells and 2) it is binding to the correct region of the protein.
For antibody neutralization assay Raji cells were used, a human B cell line that expressed high amounts of CD81 on the surface (data not shown). Cells were grown in RPMI medium (10% FCS, 1% penicillin/streptomycin, 1% L-glutamine, 1% non-essential amino acids, 1% sodium pyruvate, pH 7.4, at 37° C. with 5% CO2). 2×10^5 cells were incubated with or without different concentrations (50 μM, 100 μM, 400 μM and 1 mM) of indicated inhibitor for 20 min at room temperature, subsequently 1 ul (16 ng/μl) of FITC-labeled anti CD81 antibody (BD Pharmingen, 551108) was added to the cells and incubated for 20 min (antibody titration was performed to obtain a working dilution range, data not shown). Cells were washed and analyzed by flow cytometry using fluorescence-activated cell sorting (FACS) (BD FACSCalibur, software: Cell Quest Pro). Mean Fluorescence Intensity MFI was calculated using Flowjo software (TreesStar, www.flowjo.com).
In general terms: Flow cytometry measures light scatter and fluorescence of single cells or particles in a stream.

A word on the inhibition: it is the change of the read-out against control, counted positive when it falls. Read a low inhibition as a response near the control.

Consider `CC1CCCC(CC(=O)O)(CC(=O)O)C1` (stereo not shown) [Ligand 3001], for which the “Binding (RU)” value at recombinant CD81-LEL is 4.6 RU.
On the same count and under the same terms, in the case of `Cc1ccc(NC(=S)NC(=O)c2ccccc2)cc1NC(=S)NC(=O)c1ccccc1` [Ligand 5856] it was 2.7 RU.
As to `CCC(C)(C)c1ccc(Oc2cccc(C(=O)O)c2)cc1` [Ligand 7962], the “Binding (RU)” value at recombinant CD81-LEL came to 14.7 RU. Besides, the “Inhibition of JS-81 Binding (%)” value was found to be 0% in test [1] (50 μM ligand), 0% in test [1] (100 μM ligand) and 19% in test [1] (400 μM ligand).
Turning to `CC(C)(C)c1ccc(OCC(=O)O)cc1` [Ligand 8481], the “Binding (RU)” value on recombinant CD81-LEL is given as 1.8 RU.
Consider `Cn1ncc2c(Nc3ccc(Br)cc3)nc(Nc3ccc(Br)cc3)nc21` [Ligand 11667], for which the “Binding (RU)” value on recombinant CD81-LEL was found to be 9.6 RU.
Same read-out and setting: next, `CCNc1ccccc1C(=O)O` [Ligand 16162]: 5.1 RU; `CC(C)Oc1ccc(C(=O)O)cc1` [Ligand 16646]: 4.9 RU; `N=C(N)Nc1ccc(NC(=N)N)cc1` [Ligand 20586]: 17.4 RU.
Consider `O=C(O)c1ccc(N2CCCCC2)cc1O` [Ligand 23895], for which the “Binding (RU)” value at recombinant CD81-LEL stood at 10 RU. For the same compound, the “Inhibition of JS-81 Binding (%)” value in test [1] (50 μM ligand) was found to be 0%; in test [1] (100 μM ligand), 0%; in test [1] (400 μM ligand), 17%.
Turning to `O=C(O)c1[nH]c(=O)[nH]c(=O)c1F` [Ligand 31712], on recombinant CD81-LEL, the “Binding (RU)” value amounted to 4.1 RU.
With `C=CCc1ccccc1OCC(=O)O` [Ligand 60239], at recombinant CD81-LEL, the “Binding (RU)” value is reported as 5.8 RU.
Same read-out and setting: next, `CC(OC(=O)Nc1cccc(Cl)c1)C(=O)O` (stereo not shown) [Ligand 73170]: 4.3 RU.
Consider `CNC1(C(N)=O)CCNCC1` [Ligand 75846], for which the “Inhibition of JS-81 Binding (%)” value in test [1] (50 μM ligand) turned out to be 0%; in test [1] (100 μM ligand), 0%; in test [1] (400 μM ligand) it was 52%.
On to `COc1cccc(C2Nc3cccc4cccc(c34)N2)c1` [Ligand 76823], for which the “Binding (RU)” value on recombinant CD81-LEL came out at 5.4 RU.
Same read-out and setting: in the case of `O=c1[nH]c2ccccc2n1C1=CCNCC1` [Ligand 88883] it was 5.4 RU.
Regarding `O=C(O)CCc1cccnc1` [Ligand 89720], on recombinant CD81-LEL, the “Binding (RU)” value was determined as 9.2 RU.
Turning to `O=C(O)C(Cc1ccccc1-c1ccccc1)C(=O)O` [Ligand 94914], at recombinant CD81-LEL, the “Binding (RU)” value came out at 7.2 RU.
Still for that read-out and setting: in the case of `CCCCNCC1CCCO1` (stereo not shown) [Ligand 97538] it was 4.2 RU; in that of `O=C(O)c1ccc(OCCOc2ccccc2)cc1` [Ligand 120631], 8.3 RU.
`CCNc1nc(Cl)nc(-c2cn(-c3ccccc3)c3ccccc23)n1` [Ligand 142446]: at recombinant CD81-LEL, the “Binding (RU)” value came to 2.5 RU.
As for `CC1=CC(=O)CC(C)(C)C1(O)/C=C/C(C)=C/C(=O)O` (stereo not shown) [Ligand 148832], the “Binding (RU)” value on recombinant CD81-LEL is recorded as 2.9 RU.
Same read-out and setting: next, `COc1cc(/N=N/c2ccccc2C(=O)O)ccc1O` [Ligand 153172]: 2.6 RU; `Cc1ccc(C)c(C(=O)CCC(=O)O)c1` [Ligand 215276]: 7.4 RU; `Cc1cc(N2CCN(C)CC2)n2nc(-c3ccc(Cl)cc3)nc2n1` [Ligand 252359]: 9.3 RU.
The same measure, in the same setting: next, `CCOc1cccc2cc(C(N)=O)c(=N)oc12` [Ligand 263636]: 3.4 RU; `O=C(O)c1ccccc1NCc1ccco1` [Ligand 331931]: 5.9 RU; `N=C(N)NC(=S)Nc1ccc(Cl)cc1` [Ligand 403374]: 12.6 RU.
Still for that read-out and setting: next, `CCCCCCC(C)OC(=O)c1ccccc1C(=O)O` (stereo not shown) [Ligand 524615]: 4.1 RU.
`O=C(Nc1ccc(Br)c2ccccc12)c1ccc2ccccc2c1O` [Ligand 601359]: the “Binding (RU)” value on recombinant CD81-LEL is given as 4.1 RU.
For the compound `NC(=O)c1ccc2c(c1)S(=O)(=O)c1ccccc1C2=O` [Ligand 689002, 9-Oxo-9H-thioxanthene-3-carboxamide 10,10-dioxide], at 50 µM the inhibition in test [1] (50 μM ligand) was 0%. In addition, in test [1] (100 μM ligand), the inhibition at 100 µM stood at 0%. Further, in test [1] (400 μM ligand), at 400 µM the inhibition was 14%.
